In general, ED50 refers to the midpoint of the dose-response relation.

Experimental findings from patent US20050148634A1, “1-N-Aminobenzimidazole derivatives” (ZERIA PHARMACEUTICAL CO., LTD, priority 2002, published 2005) are described below.

Data set [1] deals with histamine-stimulated gastric acid secretion. The experiment in a line: Test 2 gastric acid secretion inhibitory effect, acute fistula method. It is filed as in vivo, Sprague-Dawley (SD) rats. The following applies: male SD rats, administered into the duodenum, total gastric acid secreted on 3rd-5th hours, Probit method; for ED50: Rattus norvegicus. The method, then:
Test 2 (Gastric Acid Secretion Inhibitory Effect)
(1) As laboratory animals, seven-week old male Sprague-Dawley (SD) rats were purchased from CHARLES RIVER JAPAN, INC. Subsequent to preliminary rearing for 5 days or longer, they were used in an experiment.
Each test medicine was suspended or dissolved in a 0.5% carboxymethylcellulose sodium solution to prepare a volume of 2.5 mL/kg.
(2) Measurement of Gastric Acid Secretion
Using rats fasted for 18 hours, histamine-stimulated gastric acid secretion in an acute fistula method following the method reported by Hiramatsu et al. (Dig. Dis. Sci., 39, 689-697 (1994)) was measured. Described specifically, each rat was lightly anesthetized with diethyl ether. After that, a winged tube needle with 3.8% citric acid solution filled therein was caused to dwell in the caudal vein. Celiotomy was performed, and the pyloric part of the stomach was ligated. A small hole was then formed in the duodenum, and a feeding tube with physiological saline filled therein was caused to dwell there. After the interior of the stomach was washed with physiological saline, a polyethylene-made fistula tube (inner diameter: 4 mm) was fitted to the proventriculus part and an incised part of the proventriculus was ligated to hold the fistula tube in place. The stomach and duodenum were returned into the abdominal cavity. Celiotomy was performed with the fistula tube and feeding tube being left extending outside, and the rat was placed in a Ballman Cage Type II. Histamine was continuously injected through the winged needle allowed to dwell in the caudal vein (8 mg/kg/h, 1.38 mL/h). Fifteen minutes later, the gastric juice was sampled, and after that, the gastric juice was sampled at intervals of 1 hour. After the amount of each gastric juice sample was recorded, it was titrated with 0.1 mol/L NaOH to a final point of pH 7.0. From the volume required for the titration, the acidity was calculated. The quantity of the secreted gastric acid was determined from the product of the amount of the gastric juice and the acidity. Incidentally, the rats were divided into groups such that the total amount of the first gastric juice samples became equal in each group. Each test medicine was administered in a volume of 2.5 mL/kg into the duodenum through the feeding tube fitted beforehand in the duodenum. To a control group, 0.5% Na—CMC solution was administered.
(3) Analysis of the Results
From the results so obtained, data were presented in terms of average ±S.D. The sum of quantities of gastric acid secreted on the 3rd, 4th and 5th hours after the first sampling was recorded as a total quantity of secreted gastric acid. The percent inhibition in each group was calculated from the total quantity of secreted gastric acid in the control group and the total quantity of secreted gastric acid in the group. From the percent inhibition in each group, the 50% effective dose (ED50) was next calculated by the Probit method.

Another data set addresses T1, human CYP2C19 (Homo sapiens, UniProt P33261).
T1 construct: purchased Sumitomo Chemical Co., Ltd
The experiment in a line: Test 3 human CYP2C19 activity inhibition test (S-(+)-mephenyloin to 4'-hydroxymephenyloin). The following applies: test compound 10 μM, microsomes from human CYP2C19 expression system, formed 4'-hydroxymephenyloin compared with control. It is filed as in vitro ADME. As for the experimental part: Test 3 (Human CPY2C19 Activity Inhibition Test)
CYP2C19 specifically induces the metabolic reaction of from S-(+)-mephenyloin into 4′-hydroxymephenyloin. Using the CYP2C19 expression system, the inhibitory effect of each test substance was investigated based on the amount (concentration) of formed 4′-hydroxymephenylion as an index of CYP2C19 activity.
a) Metabolic Activity Test
As a reaction mixture, a 125 μmol/L solution of S-(+)-mephenyloin in methanol (50 μL) and a 25 μmol/L solution of each test substance in methanol (0, 10, 100 or 200 μL) were added to 10-mL test tube made of glass, and the solvent was distilled off under a nitrogen gas stream (40° C.).
After incubated at 37° C. for 10 minutes, a 12% aqueous solution of perchloric acid (50 μL) was added to terminate the reaction.
Subsequent to the termination of the reaction, 10 μg/mL methyl p-hydroxybenzoate (50 μL) as an internal standard (I.S.) and diethyl ether (2 mL) were added. The resulting mixture was shaken for 10 minutes, and then centrifuged (3,000 rpm, 10 minutes). The organic layer was separately collected, and under a nitrogen gas stream (40° C.), the solvent was distilled off. The residue was dissolved in a mobile phase (200 μL), and an analysis was conducted by high performance liquid chromatography (HPLC).
Using a solution of 4′-hydroxymephenyloin in lieu of the S-(+)-mephenyloin solution, a calibration line was prepared following the above-described reaction method. Quantitation was conducted based on a peak area ratio of 4′-hydroxymephenyloin to the I.S. Comparing the formed amount of 4′-hydroxymephenyloin as a control with that of 4′-hydroxymephenyloin at the time of the existence of the test compound, the comparison result was used as an index of activity.
HPLC was conducted under the following HPLC conditions A or HPLC conditions B. […]

T1 sequence (P33261 whole entry): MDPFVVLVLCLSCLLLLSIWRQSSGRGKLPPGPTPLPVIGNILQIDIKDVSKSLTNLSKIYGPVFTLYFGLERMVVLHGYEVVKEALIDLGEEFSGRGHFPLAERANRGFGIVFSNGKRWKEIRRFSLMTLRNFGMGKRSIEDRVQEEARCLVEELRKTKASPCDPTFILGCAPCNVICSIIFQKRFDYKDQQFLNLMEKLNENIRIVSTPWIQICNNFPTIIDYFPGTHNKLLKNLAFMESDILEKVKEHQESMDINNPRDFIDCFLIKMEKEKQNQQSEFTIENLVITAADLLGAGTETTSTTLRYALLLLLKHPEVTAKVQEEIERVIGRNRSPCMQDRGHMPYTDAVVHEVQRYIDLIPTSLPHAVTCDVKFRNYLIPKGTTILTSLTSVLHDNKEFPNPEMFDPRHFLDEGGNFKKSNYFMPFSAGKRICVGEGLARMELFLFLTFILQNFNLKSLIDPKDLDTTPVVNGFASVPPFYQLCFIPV

Consider `Cc1c(OCC(F)(F)F)ccnc1C[S+]([O-])c1nc2ccccc2n1NCC(C)O` (mixture of isomers) [Example 55], for which the “Gastric acid secretion inhibitory effect ED50” value in data set [1] worked out at 3.6 mg/kg. The “CYP2C19 activity inhibition (%)” value at human CYP2C19 was 63.8%.

For the compound `COCCCOc1ccnc(C[S+]([O-])c2nc3ccccc3n2NCC(C)O)c1C` (mixture of isomers) [Example 63], on human CYP2C19, the “CYP2C19 activity inhibition (%)” value worked out at 72.1%.

On to `COCCCOc1ccnc(C[S+]([O-])c2nc3ccccc3n2N)c1C` (racemic) [Example 21], for which the “CYP2C19 activity inhibition (%)” value at human CYP2C19 worked out at 78.6%.

Take `Cc1c(OCCOCC(F)(F)F)ccnc1C[S+]([O-])c1nc2ccccc2n1N` (racemic) [Example 23]: at human CYP2C19, the “CYP2C19 activity inhibition (%)” value was 75.6%.

Turning to `COc1c(OCCOCC(F)(F)F)ccnc1C[S+]([O-])c1nc2ccccc2n1N` (racemic) [Example 24], the “CYP2C19 activity inhibition (%)” value on human CYP2C19 was determined as 81.9%.

Turning to `Cc1c(OCCCC(F)(F)F)ccnc1C[S+]([O-])c1nc2ccccc2n1N` (racemic) [Example 25], the “Gastric acid secretion inhibitory effect ED50” value in data set [1] is given as 1.1 mg/kg.

Turning to `COc1c(OCCCC(F)(F)F)ccnc1C[S+]([O-])c1nc2ccccc2n1N` (racemic) [Example 26], the “Gastric acid secretion inhibitory effect ED50” value in data set [1] was 2.6 mg/kg. Further, the “CYP2C19 activity inhibition (%)” value on human CYP2C19 is listed as 73.2%.

For the compound `Cc1c(OCC(F)(F)F)ccnc1C[S+]([O-])c1nc2ccccc2n1NCCCO` (racemic) [Example 36], the “CYP2C19 activity inhibition (%)” value at human CYP2C19 (listed as Racemic mixture of Example 36, 10 µM) is 61.7%.

With `Cc1c(OCC(F)(F)F)ccnc1C[S+]([O-])c1nc2ccccc2n1NCCN(C)C` (racemic) [Example 48], the “CYP2C19 activity inhibition (%)” value at human CYP2C19 turned out to be 72.3%.

Consider `COCCCOc1ccnc(C[S+]([O-])c2nc3ccccc3n2NCCCO)c1C` (racemic) [Example 57], for which the “CYP2C19 activity inhibition (%)” value on human CYP2C19 (listed as Racemic mixture of Example 57, 10 µM) is listed as 73%.

Turning to `COCCOc1ccnc(C[S+]([O-])c2nc3ccccc3n2NCCCO)c1C` (racemic) [Example 58], the “CYP2C19 activity inhibition (%)” value at human CYP2C19 amounted to 67.3%.

As to `COc1c(OCC(F)(F)F)ccnc1C[S+]([O-])c1nc2ccccc2n1NCCCO` (racemic) [Example 59], on human CYP2C19, the “CYP2C19 activity inhibition (%)” value is recorded as 61.7%.

Take `Cc1c(OCCOCC(F)(F)F)ccnc1C[S+]([O-])c1nc2ccccc2n1NCCCO` (racemic) [Example 60]: the “CYP2C19 activity inhibition (%)” value on human CYP2C19 was found to be 71.4%.

Regarding `COc1c(OCCOCC(F)(F)F)ccnc1C[S+]([O-])c1nc2ccccc2n1NCCCO` (racemic) [Example 61], the “CYP2C19 activity inhibition (%)” value at human CYP2C19 was 64.8%.

On to `Cc1c(OCCCOCC(F)(F)F)ccnc1C[S+]([O-])c1nc2ccccc2n1NCCCO` (racemic) [Example 62], for which, on human CYP2C19, the “CYP2C19 activity inhibition (%)” value is on record as 95.3%.

`Cc1c(OCC(F)(F)F)ccnc1C[S+]([O-])c1nc2ccccc2n1NCCCO` (single isomer, unassigned; (+)) [(+) Isomer of Example 36]: in data set [1], the “Gastric acid secretion inhibitory effect ED50” value worked out at 1.1 mg/kg. The “CYP2C19 activity inhibition (%)” value on human CYP2C19 (10 µM) was 70.6%.

For the compound `COCCCOc1ccnc(C[S+]([O-])c2nc3ccccc3n2NCCCO)c1C` (single isomer, unassigned; (+)) [(+) Isomer of Example 57], the “CYP2C19 activity inhibition (%)” value at human CYP2C19 (10 µM) worked out at 67.4%.

Take `COCCCOc1ccnc(C[S+]([O-])c2nc3ccccc3n2NCCCO)c1C` (single isomer, unassigned; (-)) [(−) Isomer of Example 57]: the “CYP2C19 activity inhibition (%)” value on human CYP2C19 (10 µM) is 77.6%.

Compound `COc1ccc2nc([S@@+]([O-])Cc3ncc(C)c(OC)c3C)[nH]c2c1` [Esomeprazole, esomeprazole, reference compound] displayed an ED50 in data set [1] of 2.9 mg/kg. Besides, the “CYP2C19 activity inhibition (%)” value at human CYP2C19 is 35.4%.

`Cc1c(OCC(F)(F)F)ccnc1C[S+]([O-])c1nc2ccccc2[nH]1` (stereo not shown) [Lansoprazole, lansoprazole, reference compound]: it took a dose of 1.1 mg/kg to reach the 50% effect level in data set [1] (ED50). Moreover, at human CYP2C19, the “CYP2C19 activity inhibition (%)” value stood at 8.7%.

Turning to `COc1ccc2[nH]c([S+]([O-])Cc3ncc(C)c(OC)c3C)nc2c1` (stereo not shown) [Omeprazole, omeprazole, reference compound], the ED50 in data set [1] turned out to be 3.6 mg/kg. In addition, the “CYP2C19 activity inhibition (%)” value at human CYP2C19 worked out at 18.4%.

With `COc1ccnc(C[S+]([O-])c2nc3ccc(OC(F)F)cc3[nH]2)c1OC` (stereo not shown) [Pantoprazole, pantoprazole, reference compound], the 50% effective dose (ED50) in data set [1] was found to be 0.34 mg/kg. Moreover, at human CYP2C19, the “CYP2C19 activity inhibition (%)” value is 33.1%.

`COCCCOc1ccnc(C[S+]([O-])c2nc3ccccc3[nH]2)c1C` (stereo not shown) [Rabeprazole, rabeprazole, reference compound] returned a median effective dose (ED50) in data set [1] of 2.5 mg/kg. Moreover, on human CYP2C19, the “CYP2C19 activity inhibition (%)” value is 39.8%.
